In US20250195521A1 (Revolution Medicines, Inc., priority 2020, published 2025):
Read-outs that look alike come from different tables or passages of the source.

What was measured:
[1] = target: NRAS Q61R binding to BRAF RBD (Homo sapiens (Human), UniProt P01111+P62937, Q61R); test: Ras-Raf disruption/FRET/MOA assay, NRAS Q61R; type: biochemical
From the text: (§1) Disruption of B-Raf Ras-binding Domain (BRAF^RBD) Interaction with K-Ras by Compounds of the Invention (also called a FRET assay or an MOA assay)
(§2) Note—The following protocol describes a procedure for monitoring disruption of K-Ras G12C(GMP-PNP) binding to BRAF^RBD by a compound of the invention. This protocol may also be executed substituting other Ras proteins or nucleotides.
(§3) The purpose of this biochemical assay was to measure the ability of test compounds to facilitate ternary complex formation between a nucleotide-loaded K-Ras isoform and Cyclophilin A; the resulting ternary complex disrupts binding to a BRAF^RBD construct, inhibiting K-Ras signaling through a RAF effector. Data is reported as IC50 values.
(§4) In assay buffer containing 25 mM HEPES pH 7.3, 0.002% Tween20, 0.1% BSA, 100 mM NaCl and 5 mM MgCl2, tagless Cyclophilin A, His6-K-Ras-GMPPNP, and GST-BRAF^RBD were combined in a 384-well assay plate at final concentrations of 25 μM, 12.5 nM and 50 nM, respectively. Compound was present in plate wells as a 10-point 3-fold dilution series starting at a final concentration of 30 μM. After incubation at 25° C. for 3 hours, a mixture of Anti-His Eu—W1024 and anti-GST allophycocyanin was then added to assay sample wells at final concentrations of 10 nM and 50 nM, respectively, and the reaction incubated for an additional 1.5 hours. […] Compounds that facilitate disruption of a K-Ras: RAF complex were identified as those eliciting a decrease in the TR-FRET ratio relative to DMSO control wells.

[2] = target: KRAS G12S binding to BRAF RBD (Homo sapiens (Human), UniProt P01116+P62937, G12S); test: Ras-Raf disruption/FRET/MOA assay, KRAS G12S; type: biochemical
From the text: as §2, §3
as §4, with “Compound” for “In assay buffer containing 25 mM HEPES pH 7.3, 0.002% Tween20, 0.1% BSA, 100 mM NaCl and 5 mM MgCl2, tagless Cyclophilin A, His6-K-Ras-GMPPNP, and GST-BRAF^RBD were combined in a 384-well assay plate at final concentrations of 25 μM, 12.5 nM and 50 nM, respectively. Compound”

[3] = target: KRAS G13D binding to BRAF RBD (Homo sapiens (Human), UniProt P01116+P62937, G13D); test: Ras-Raf disruption/FRET/MOA assay, KRAS G13D; type: biochemical
Outline: (§5)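 First, test compounds in a 10-point 3-fold series (30 μM final top) were incubated for 3 hours at 25° C with nucleotide-loaded Ras, cyclophilin A and a BRAF RBD construct. Next, Eu anti-His and allophycocyanin anti-GST detection reagents were added for 1.5 hours. Finally, IC50s were derived from loss of TR-FRET signal against DMSO.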

NCI-H358 (K-Ras G12C) = test: CellTiter-Glo cell viability assay, NCI-H358; type: cell-based, human; conditions: Homo sapiens, NCI-H358, 120 h, 5-day treatment; read-out: H358 Cell Viability assay data (K-Ras G12C, IC50)
Outline: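 Viability read-out was luminescent (CellTiter-Glo) on day 5 of compound exposure in K-Ras G12C NCI-H358 cells. Values were expressed as percent of mean DMSO signal and fitted with a four-parameter logistic curve.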

[4] = tested on: K-Ras G12C (NCI-H358 cells); test: Potency assay: pERK in NCI-H358 cells; type: cell-based, human; conditions: Homo sapiens; NCI-H358 cells, 4 hours; read-out: pERK EC50 (H358 KRAS G12C)
Outline: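 Cells plated the day before were exposed for 4 h at 37° C, 5% CO2 to a 10-point, 3-fold DMSO dilution series (10 mM top stock), in duplicate. Phospho-ERK was read by AlphaLISA SureFire Ultra or by In-Cell Western with DRAQ5 DNA stain, and IC50 came from a 4-parameter sigmoidal fit.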

[5] = target: KRAS WT binding to BRAF RBD (Homo sapiens (Human), UniProt P01116+P62937); test: Ras-Raf disruption/FRET/MOA assay, KRAS WT; type: biochemical
KRAS WT binding to BRAF RBD, sequence (P01116 other isoform, or with tags, fused parts or gaps): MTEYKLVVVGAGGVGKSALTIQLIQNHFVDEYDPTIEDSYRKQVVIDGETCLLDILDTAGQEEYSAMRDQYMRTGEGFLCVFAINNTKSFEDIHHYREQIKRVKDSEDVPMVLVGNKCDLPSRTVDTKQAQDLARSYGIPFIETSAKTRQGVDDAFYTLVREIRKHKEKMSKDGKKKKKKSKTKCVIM
KRAS WT binding to BRAF RBD, sequence (P62937 whole entry): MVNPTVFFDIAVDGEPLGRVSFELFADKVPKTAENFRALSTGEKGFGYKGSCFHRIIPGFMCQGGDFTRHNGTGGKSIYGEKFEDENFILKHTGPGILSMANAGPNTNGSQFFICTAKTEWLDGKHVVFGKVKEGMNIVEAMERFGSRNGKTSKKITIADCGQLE
From the text: as §1, §2, §3, §4

[6] = target: K-Ras G12C(GMP-PNP) binding to BRAF RBD (Homo sapiens (Human), UniProt P01116+P62937, G12C); test: Disruption of BRAF RBD interaction with K-Ras (FRET / MOA assay), K-Ras G12C; type: biochemical; conditions: read-out: KRAS G12C FRET IC50
Outline: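 TR-FRET readout: after 3 h compound incubation at 25 °C, anti-His Eu and anti-GST allophycocyanin (10 and 50 nM final) added for a further 1.5 h. Dilution series was 10-point, 3-fold, top 30 μM final. Ras–cyclophilin A ternary complex formation blocks the BRAF RBD interaction; IC50 derived from reduced FRET ratio relative to DMSO.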

[7] = target: NRAS Q61K binding to BRAF RBD (Homo sapiens (Human), UniProt P01111+P62937, Q61K); test: Ras-Raf disruption/FRET/MOA assay, NRAS Q61K; type: biochemical
From the text: as §1, §2, §3, §4

[8] = target: KRAS G12V binding to BRAF RBD (Homo sapiens (Human), UniProt P01116+P62937, G12V); test: Ras-Raf disruption/FRET/MOA assay, KRAS G12V; type: biochemical; conditions: read-out: KRAS G12V FRET IC50
From the text: as §2, §3
as §4, with “Compound” for “In assay buffer containing 25 mM HEPES pH 7.3, 0.002% Tween20, 0.1% BSA, 100 mM NaCl and 5 mM MgCl2, tagless Cyclophilin A, His6-K-Ras-GMPPNP, and GST-BRAF^RBD were combined in a 384-well assay plate at final concentrations of 25 μM, 12.5 nM and 50 nM, respectively. Compound”

[9] = target: KRAS Q61H binding to BRAF RBD (Homo sapiens (Human), UniProt P01116+P62937, Q61H); test: Ras-Raf disruption/FRET/MOA assay, KRAS Q61H; type: biochemical
KRAS Q61H binding to BRAF RBD, sequence (P01116 other isoform, or with tags, fused parts or gaps Q61H): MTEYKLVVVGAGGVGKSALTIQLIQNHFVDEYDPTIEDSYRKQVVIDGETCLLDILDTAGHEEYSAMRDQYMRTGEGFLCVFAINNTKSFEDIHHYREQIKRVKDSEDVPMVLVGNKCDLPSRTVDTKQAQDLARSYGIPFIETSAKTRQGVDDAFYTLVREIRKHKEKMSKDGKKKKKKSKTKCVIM
KRAS Q61H binding to BRAF RBD, sequence (P62937 whole entry): as the sequence (P62937 whole entry) above
From the text: as §1, §2, §3, §4

[10] = target: NRAS G12C binding to BRAF RBD (Homo sapiens (Human), UniProt P01111+P62937, G12C); test: Ras-Raf disruption/FRET/MOA assay, NRAS G12C; type: biochemical
Outline: as §5

[11] = target: NRAS WT binding to BRAF RBD (Homo sapiens (Human), UniProt P01111+P62937); test: Ras-Raf disruption/FRET/MOA assay, NRAS WT; type: biochemical
From the text: as §1, §2, §3, §4

NRAS Q61K = NRAS Q61K (Homo sapiens (Human), UniProt P01111+P62937, Q61K); test: Ras-Raf disruption/FRET/MOA assay, NRAS Q61K; type: biochemical
NRAS Q61K, sequence (P01111 whole entry Q61K, the tested form may be a part): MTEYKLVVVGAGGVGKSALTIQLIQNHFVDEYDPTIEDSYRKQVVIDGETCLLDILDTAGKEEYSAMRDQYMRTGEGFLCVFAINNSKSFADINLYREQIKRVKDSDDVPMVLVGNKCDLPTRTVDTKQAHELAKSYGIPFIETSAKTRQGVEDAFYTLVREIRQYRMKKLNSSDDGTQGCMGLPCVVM
NRAS Q61K, sequence (P62937 whole entry, the tested form may be a part): as the sequence (P62937 whole entry) above
From the text: (§6) Disruption of B-Raf Ras-Binding Domain (BRAF^RBD) Interaction with K-Ras by Compounds of the Invention (Also Called a FRET Assay or an MOA Assay)
(§7) Note—The following protocol describes a procedure for monitoring disruption of K-Ras G12C (GMP-PNP) binding to BRAF^RBD by a compound of the invention. This protocol may also be executed substituting other Ras proteins or nucleotides, such as K-Ras G12D and K-Ras G13D.
as §3
as §4, with “12.5 nM,” for “12.5 nM”, “of anti-His” for “of Anti-His”

NRAS Q61R = NRAS Q61R (Homo sapiens (Human), UniProt P01111+P62937, Q61R); test: Ras-Raf disruption/FRET/MOA assay, NRAS Q61R; type: biochemical
NRAS Q61R, sequence (P01111 whole entry Q61R): as the sequence (P01111 whole entry Q61K, the tested form may be a part) above, with K61R counted along it
NRAS Q61R, sequence (P62937 whole entry): as the sequence (P62937 whole entry) above
From the text: as §6, §7, §3
as §4, with “12.5 nM,” for “12.5 nM”, “of anti-His” for “of Anti-His”

NRAS WT = NRAS WT (Homo sapiens (Human), UniProt P01111+P62937); test: Ras-Raf disruption/FRET/MOA assay, NRAS WT; type: biochemical
NRAS WT, sequence (P01111 whole entry): as the sequence (P01111 whole entry Q61K, the tested form may be a part) above, with K61Q counted along it
NRAS WT, sequence (P62937 whole entry): as the sequence (P62937 whole entry) above
From the text: as §6, §7, §3
as §4, with “12.5 nM,” for “12.5 nM”, “of anti-His” for “of Anti-His”

KRAS G12V = KRAS G12V (Homo sapiens (Human), UniProt P01116+P62937, G12V); test: Ras-Raf disruption/FRET/MOA assay, KRAS G12V; type: biochemical
KRAS G12V, sequence (P01116 other isoform, or with tags, fused parts or gaps G12V): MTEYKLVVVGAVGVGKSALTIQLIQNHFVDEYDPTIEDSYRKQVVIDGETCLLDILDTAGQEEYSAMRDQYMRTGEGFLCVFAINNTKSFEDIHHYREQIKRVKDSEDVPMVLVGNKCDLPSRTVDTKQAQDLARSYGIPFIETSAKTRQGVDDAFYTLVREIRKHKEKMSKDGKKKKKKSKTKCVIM
KRAS G12V, sequence (P62937 whole entry): as the sequence (P62937 whole entry) above
Outline: (§8)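 Measured by TR-FRET: a decrease relative to DMSO indicates disruption of GMPPNP-Ras binding to BRAF^RBD, mediated by Cyclophilin A (25 μM). Compound was tested as a dilution series up to 30 μM with 3 h preincubation at 25° C.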

KRAS G12S = KRAS G12S (Homo sapiens (Human), UniProt P01116+P62937, G12S); test: Ras-Raf disruption/FRET/MOA assay, KRAS G12S; type: biochemical
KRAS G12S, sequence (P01116 other isoform, or with tags, fused parts or gaps G12S): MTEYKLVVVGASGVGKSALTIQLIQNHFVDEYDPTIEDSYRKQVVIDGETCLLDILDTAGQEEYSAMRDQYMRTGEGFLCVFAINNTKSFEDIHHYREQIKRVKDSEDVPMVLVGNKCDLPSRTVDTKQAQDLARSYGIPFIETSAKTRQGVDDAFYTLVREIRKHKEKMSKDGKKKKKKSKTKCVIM
KRAS G12S, sequence (P62937 whole entry): as the sequence (P62937 whole entry) above
Outline: as §8

NRAS G12C = NRAS G12C (Homo sapiens (Human), UniProt P01111+P62937, G12C); test: Ras-Raf disruption/FRET/MOA assay, NRAS G12C; type: biochemical
NRAS G12C, sequence (P01111 whole entry G12C): as the sequence (P01111 whole entry Q61K, the tested form may be a part) above, with G12C, K61Q counted along it
NRAS G12C, sequence (P62937 whole entry): as the sequence (P62937 whole entry) above
Outline: as §8

KRAS G12D = KRAS G12D (Homo sapiens (Human), UniProt P01116+P62937, G12D); test: Ras-Raf disruption/FRET/MOA assay, KRAS G12D; type: biochemical
KRAS G12D, sequence (P01116 other isoform, or with tags, fused parts or gaps G12D): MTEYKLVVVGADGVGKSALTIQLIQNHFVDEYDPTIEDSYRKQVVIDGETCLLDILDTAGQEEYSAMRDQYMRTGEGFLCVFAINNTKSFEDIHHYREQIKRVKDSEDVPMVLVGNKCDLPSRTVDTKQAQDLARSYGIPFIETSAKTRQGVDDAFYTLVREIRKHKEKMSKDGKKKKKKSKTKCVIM
KRAS G12D, sequence (P62937 whole entry): as the sequence (P62937 whole entry) above
Outline: as §8

KRAS G13C = KRAS G13C (Homo sapiens (Human), UniProt P01116+P62937, G13C); test: Ras-Raf disruption/FRET/MOA assay, KRAS G13C; type: biochemical
KRAS G13C, sequence (P01116 other isoform, or with tags, fused parts or gaps G13C): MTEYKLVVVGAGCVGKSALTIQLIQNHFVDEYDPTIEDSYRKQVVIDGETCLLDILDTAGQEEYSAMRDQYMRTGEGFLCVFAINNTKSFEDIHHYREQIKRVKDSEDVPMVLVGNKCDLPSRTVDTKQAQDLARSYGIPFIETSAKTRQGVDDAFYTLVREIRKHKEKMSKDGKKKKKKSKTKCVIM
KRAS G13C, sequence (P62937 whole entry): as the sequence (P62937 whole entry) above
Outline: as §8

KRAS G13D = KRAS G13D (Homo sapiens (Human), UniProt P01116+P62937, G13D); test: Ras-Raf disruption/FRET/MOA assay, KRAS G13D; type: biochemical
KRAS G13D, sequence (P01116 other isoform, or with tags, fused parts or gaps G13D): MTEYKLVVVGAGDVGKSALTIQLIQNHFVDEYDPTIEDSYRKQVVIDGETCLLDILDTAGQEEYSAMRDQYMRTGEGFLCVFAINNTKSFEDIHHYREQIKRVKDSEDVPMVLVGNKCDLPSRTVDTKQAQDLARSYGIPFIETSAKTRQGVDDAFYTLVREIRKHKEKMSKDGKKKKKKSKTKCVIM
KRAS G13D, sequence (P62937 whole entry): as the sequence (P62937 whole entry) above
Outline: as §8

KRAS G12C = KRAS G12C (Homo sapiens (Human), UniProt P01116+P62937, G12C); test: Ras-Raf disruption/FRET/MOA assay, KRAS G12C; type: biochemical
KRAS G12C, sequence (P01116-2 other isoform, or with tags, fused parts or gaps G12C): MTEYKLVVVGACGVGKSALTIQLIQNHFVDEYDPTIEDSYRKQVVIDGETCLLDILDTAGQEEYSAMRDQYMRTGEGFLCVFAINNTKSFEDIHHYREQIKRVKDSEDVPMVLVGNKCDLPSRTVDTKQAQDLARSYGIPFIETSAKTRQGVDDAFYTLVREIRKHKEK
KRAS G12C, sequence (P62937 whole entry): as the sequence (P62937 whole entry) above
Outline: as §8

KRAS Q61H = KRAS Q61H (Homo sapiens (Human), UniProt P01116+P62937, Q61H); test: Ras-Raf disruption/FRET/MOA assay, KRAS Q61H; type: biochemical
KRAS Q61H, sequence (P01116 other isoform, or with tags, fused parts or gaps Q61H): as the sequence (P01116 other isoform, or with tags, fused parts or gaps Q61H) above
KRAS Q61H, sequence (P62937 whole entry): as the sequence (P62937 whole entry) above
From the text: as §6, §7, §3
as §4, with “12.5 nM,” for “12.5 nM”, “of anti-His” for “of Anti-His”

KRAS WT = KRAS WT (Homo sapiens (Human), UniProt P01116+P62937); test: Ras-Raf disruption/FRET/MOA assay, KRAS WT; type: biochemical
KRAS WT, sequence (P01116 other isoform, or with tags, fused parts or gaps): as the sequence (P01116 other isoform, or with tags, fused parts or gaps) above
KRAS WT, sequence (P62937 whole entry): as the sequence (P62937 whole entry) above
Outline: as §8

Structure (SMILES)	IC50 (NRAS Q61K)	IC50 (KRAS G12V)	IC50 (NRAS Q61R)	IC50 (KRAS G12S)	IC50 (NRAS WT)	IC50 (NRAS G12C)	IC50 (KRAS G12D)	IC50 (KRAS G13C)	IC50 (KRAS G13D)	IC50 (KRAS G12C)	IC50 (KRAS Q61H)	IC50 (KRAS WT)	further results
C=CC(=O)N(C)CC1CCN(C(=O)N(C)[C@H](C(=O)N[C@H]2Cc3nc(cs3)-c3ccc4c(c3)c(c(-c3cccnc3[C@H](C)OC)n4CC)CC(C)(C)COC(=O)[C@@H]3CCCN(N3)C2=O)C(C)C)CC1 (atropisomer, axis not shown) [Compound A629]													IC50 [1]: 10 to 100 nM; IC50 [2]: 10 to 100 nM; IC50 [3]: 100 to 1000 nM; IC50 (NCI-H358 (K-Ras G12C)): < 10 nM; EC50 [4]: < 5000 nM; IC50 [5]: 10 to 100 nM; IC50 [6]: 10 to 100 nM; IC50 [7]: 10 to 100 nM; IC50 [8]: 10 to 100 nM; IC50 [9]: 10 to 100 nM; IC50 [10]: 10 to 100 nM; IC50 [11]: 10 to 100 nM
CCn1c(-c2cccnc2[C@H](C)OC)c2c3cc(ccc31)-c1cc(O)cc(c1)C[C@H](NC(=O)[C@H](C(C)C)N(C)C(=O)[C@H]1CCCN(C(=O)[C@@H]3CN3)C1)C(=O)N1CCC[C@H](N1)C(=O)OCC(C)(C)C2 (atropisomer, axis not shown) [Example 238]													IC50 (NRAS Q61K; read-out: NRAS Q61K FRET data IC50): 100 to 1000 nM; IC50 (NRAS Q61R; read-out: NRAS Q61R FRET data IC50): 100 to 1000 nM; IC50 (NRAS WT; read-out: NRAS WT FRET IC50): 10 to 100 nM
CCn1c(-c2cccnc2[C@H](C)OC)c2c3cc(ccc31)-c1cc(O)cc(c1)C[C@H](NC(=O)[C@H](C(C)C)N(C)C(=O)[C@]13C[C@H]1CCN3C(=O)[C@H]1CN1)C(=O)N1CCC[C@H](N1)C(=O)OCC(C)(C)C2 [Example 244]	1000 to 10000 nM	100 to 1000 nM	100 to 1000 nM	100 to 1000 nM	100 to 1000 nM	10 to 100 nM	100 to 1000 nM	100 to 1000 nM	100 to 1000 nM	10 to 100 nM	10 to 100 nM	100 to 1000 nM	
CCn1c(-c2cccnc2[C@H](C)OC)c2c3cc(ccc31)-c1cc(O)cc(c1)C[C@H](NC(=O)[C@H](C(C)C)N(C)C(=O)[C@@H]1CO[C@H](C)CN1C(=O)[C@H]1CN1)C(=O)N1CCC[C@H](N1)C(=O)OCC(C)(C)C2 [Example 248]	100 to 1000 nM	10 to 100 nM	100 to 1000 nM	10 to 100 nM	10 to 100 nM	10 to 100 nM	10 to 100 nM	10 to 100 nM	10 to 100 nM	10 to 100 nM	10 to 100 nM	10 to 100 nM	
CCn1c(-c2cccnc2[C@H](C)OC)c2c3cc(ccc31)-c1cc(O)cc(c1)C[C@H](NC(=O)[C@H](C(C)C)N(C)C(=O)[C@@H]1CO[C@H](C)CN1C(=O)[C@@H]1CN1)C(=O)N1CCC[C@H](N1)C(=O)OCC(C)(C)C2 [Example 249]	10 to 100 nM	10 to 100 nM	10 to 100 nM	10 to 100 nM	10 to 100 nM	< 10 nM	10 to 100 nM	10 to 100 nM	10 to 100 nM	< 10 nM	< 10 nM	10 to 100 nM	
